Assay results: publication PMC10112521, “High-throughput AR dimerization assay identifies androgen disrupting chemicals and metabolites” (Frontiers in Toxicology, 2023)
Like-named read-outs stand apart in the source and are kept apart here.

Legend:
human AR [1] = target: T1, human AR (Homo sapiens, UniProt P10275); test: AR2 assay, agonist mode: ligand-dependent AR homodimerization (NanoBiT luciferase complementation) in stable HepG2-AR2 cells; type: cell-based; conditions: for hill_gw / hill_tp / max_med / win_model: sheet agonist_fits; for hill_gw: Hill model gain slope (Hill coefficient); for hill_gw / hill_tp: 0 given where win_model is Constant; for hill_tp: Hill model top (efficacy); for max_med: maximum median response; for win_model: winning concentration-response model (Constant, Hill, Gain-Loss); for AR2 agonist: activity call, agonist mode;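 for hill tp: Log2 fold change of luminescence over DMSO vehicle wells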;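 for max med: Log2 fold change of luminescence over DMSO vehicle wells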
T1 sequence (P10275 1-920) 1: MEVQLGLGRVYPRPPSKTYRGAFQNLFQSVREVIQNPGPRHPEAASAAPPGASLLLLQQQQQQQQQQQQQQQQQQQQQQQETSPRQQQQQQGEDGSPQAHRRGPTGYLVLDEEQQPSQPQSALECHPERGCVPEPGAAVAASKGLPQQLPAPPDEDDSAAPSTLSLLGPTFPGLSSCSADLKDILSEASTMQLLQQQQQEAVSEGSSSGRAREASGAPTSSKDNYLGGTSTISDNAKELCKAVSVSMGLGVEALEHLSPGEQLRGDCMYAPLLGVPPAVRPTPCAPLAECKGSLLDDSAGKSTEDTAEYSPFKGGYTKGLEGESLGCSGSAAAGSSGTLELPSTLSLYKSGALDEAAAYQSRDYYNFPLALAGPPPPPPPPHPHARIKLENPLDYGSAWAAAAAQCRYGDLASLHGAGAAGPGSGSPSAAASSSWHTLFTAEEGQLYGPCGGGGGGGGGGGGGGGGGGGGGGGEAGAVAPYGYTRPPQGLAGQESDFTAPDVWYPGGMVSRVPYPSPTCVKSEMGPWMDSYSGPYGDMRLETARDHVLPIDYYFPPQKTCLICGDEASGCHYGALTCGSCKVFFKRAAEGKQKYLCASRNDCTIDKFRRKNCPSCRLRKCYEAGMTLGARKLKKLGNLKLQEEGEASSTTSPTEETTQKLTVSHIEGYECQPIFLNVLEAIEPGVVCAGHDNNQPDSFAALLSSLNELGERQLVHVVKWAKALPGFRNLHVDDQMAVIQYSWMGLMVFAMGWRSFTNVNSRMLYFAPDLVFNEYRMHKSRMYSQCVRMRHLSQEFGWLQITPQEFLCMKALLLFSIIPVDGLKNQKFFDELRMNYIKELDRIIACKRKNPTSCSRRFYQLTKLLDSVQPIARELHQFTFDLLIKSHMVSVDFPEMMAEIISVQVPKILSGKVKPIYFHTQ
T1 sequence (P10275 1-920) 2: T1 sequence (P10275 1-920) 1

AR = test system: AR; set-up: method as in Kleinstreuer et al., 2017; conditions: 2017, cited from earlier work; for Antagonist reference: AR antagonist reference class ref Kleinstreuer et al.; for Agonist reference: AR agonist reference class ref Kleinstreuer et al.
human AR [2] = target: T1, human AR; test: AR2 assay, antagonist mode: disruption of R1881 (10 nM)-induced AR homodimerization in HepG2-AR2 cells; type: cell-based; conditions: for AR2 antagonist: activity call, antagonist mode, 18 h
AR2 cells (HepG2-AR2) [3] = test: Alamar Blue (resazurin) post hoc cell viability / cytotoxicity assay in AR2 cells; conditions: spid Viability, sheet antagonist_fits; for hill_tp (Hill model top): 0 where win_model is Constant
Experimental: (§1) For antagonist mode and cytotoxicity data, well-level normalized response (resp) was calculated as: resp=100 * RLU−bval/pval−bval where pval is the median RLU value of the MEC positive control wells (minimum four wells).

[4] = test system: human AR (LBD and AF2 domains) and the RID of human SRC2; set-up: method as in U.S. EPA, 2002b; conditions: cited from earlier work
human AR [5] = target: T1, human AR; test: cell-based; set-up: species or system AR2 cells (HepG2-AR2); NanoLuc complementation AR homodimerization, agonist mode, luminescence gain, AC50 by Hill fit; conditions: hill_ga, spid=Bgal; agonist mode, 18 h, no CYP expressed
[6] = test system: full-length human AR and the receptor interacting domain (RID) of SRC1; set-up: method as in U.S. EPA, 2002b; conditions: cited from earlier work
human AR [7] = target: T1, human AR; test: cell-based; set-up: species or system AR2 cells (HepG2-AR2); NanoLuc complementation AR homodimerization, antagonist mode, loss of agonist-induced luminescence, AC50 by Hill fit; conditions: hill_ga, antagonist mode, 10 nM agonist stimulus, 18 h, no CYP expressed
AR2 cells (HepG2-AR2) [8] = test system: AR2 cells (HepG2-AR2)
Experimental: as §1

[9] = test system: human AR (LBD and AF2 domains) and the RID of human SRC2; set-up: method as in U.S. EPA, 2002b; conditions: activity call, agonist mode, 2 h; invitroDBv3.4 ref U.S. EPA, 2002b; cited from earlier work
[10] = spid AR_antagonist, sheet antagonist_fits
[11] = spid AR_antagonist, sheet antagonist_fits, 0 where win_model is Constant
[12] = activity call, antagonist mode, 2 h, invitroDBv3.4 ref U.S. EPA, 2002b
[13] = activity call, 8 h, single protocol detects agonists and antagonists, invitroDBv3.4 ref U.S. EPA, 2002b
[14] = activity call, 16 h, single protocol detects agonists and antagonists, invitroDBv3.4 ref U.S. EPA, 2002b
[15] = spid AR_antagonist, sheet antagonist_fits, Hill fit parameter

Row | SMILES | hill_tp (human AR [1]) | max_med (human AR [1]) | win_model (human AR [1]) | Antagonist reference (AR) | Antagonist reference (AR; Supplementary Table S1) | max_med (maximum median response) (human AR [2]) | AR2 antagonist (human AR [2]) | win_model (winning concentration-response model) (human AR [2]; [10]) | hill_gw (Hill model slope) (human AR [2]; [11]) | max_med (maximum median response) (AR2 cells (HepG2-AR2) [3]) | hill_tp (Hill model top) (AR2 cells (HepG2-AR2) [3]) | UPitt antagonist [4, 12] | OT 8 hr [6, 13] | OT 16 hr [6, 14] | AC50 (human AR [7]; spid=Bgal) [µM] | AC50 (human AR [7]; spid=No_RNA) [µM] | hill_ga (Hill model log AC50) (AR2 cells (HepG2-AR2) [8]) | Agonist reference (AR) | hill_tp (Hill model top) (human AR [2]) | UPitt agonist [9] | also measured
1 | CC12CC1(C)C(=O)N(c1cc(Cl)cc(Cl)c1)C2=O (centres unmarked) [Procymidone] | 0.2332 | 0.2214 | Hill | Weak | Weak | 95.0019 | 1 | Hill | 0.938 | 14.9874 | 19.1789 | 1 | 0 | 0 | 3.84 | 4.23 | -1.506 | – | – | – | hill_gw (human AR [1]): 8; AC50 (human AR [5]): > 99.9 µM
2 | CC(O)(CS(=O)(=O)c1ccc(F)cc1)C(=O)Nc1ccc(C#N)c(C(F)(F)F)c1 (centres unmarked) [Bicalutamide] | – | – | – | Strong | Strong | – | – | – | – | 19.8696 | 21.5759 | 1 | 1 | 1 | – | – | – | – | – | – | hill_tp (Hill model top) (AR2 cells (HepG2-AR2) [3]; listed as BICAL): 57.2356; max_med (maximum median response) (AR2 cells (HepG2-AR2) [3]; listed as BICAL): 25.4903
3 | CC1(C)C(C=C(Cl)Cl)C1C(=O)OCc1cccc(Oc2ccccc2)c1 (centres unmarked) [Permethrin] | 0 | 0.006626 | Constant | – | – | 53.132 | – | Hill | 1.786 | 5.481 | 0 | – | 0 | 0 | 27.5 | 47.3 | 0 | Inactive | 63.3496 | 0 | AR2 agonist (human AR [1]; 18 h): 0
4 | COC(=O)Nc1nc2ccccc2[nH]1 [Carbendazim] | 0 | 0.02367 | Constant | – | – | 16.7598 | – | Hill | 8 | 17.1488 | 11.742 | – | 0 | 1 | – | – | 1.227 | Inactive | 18.0536 | 0 | AR2 agonist (human AR [1]; 18 h): 0
5 | CCCCNC(=O)n1c(NC(=O)OC)nc2ccccc21 [Benomyl] | 0 | 0.04446 | Constant | – | – | 31.5571 | – | Hill | 3.063 | 28.9418 | 26.9649 | – | 0 | 1 | – | – | 0.6267 | Inactive | 30.7847 | 0 | AR2 agonist (human AR [1]; 18 h): 0
6 | CCCC1COC(Cn2cncn2)(c2ccc(Cl)cc2Cl)O1 (centres unmarked) [Propiconazole] | 0 | 0.05395 | Constant | Weak | Weak | 96.3637 | 1 | Hill | 1.532 | 5.206 | 0 | 1 | 1 | 1 | 33.8 | 32.2 | – | – | 116.132 | – | –
7 | CC#C[C@]1(O)CC[C@H]2[C@@H]3CCC4=CC(=O)CCC4=C3[C@@H](c3ccc(N(C)C)cc3)C[C@@]21C [Mifepristone] | – | – | – | Strong | Strong | – | – | – | – | 9.555 | 0 | 1 | 1 | 1 | – | – | – | – | – | – | –
8 | CC(C)(c1ccc(O)cc1)c1ccc(O)cc1 [Bisphenol A] | 0.2654 | 0.1199 | Gain-Loss | Moderate | Moderate | – | 1 | Hill | 1.098 | 20.3748 | 26.326 | 1 | 0 | 1 | 13.1 | 15.9 | – | – | – | – | activity call in agonist mode (human AR [1]; 128-chemical evaluation, 18 h, active = maximal median response >5*bmad): tested negative; hill_gw (human AR [1]): 0.5365; max_med (maximum median response) (human AR [2]; [10]): 101.007; hill_tp (Hill model top) (human AR [2]; [11]): 118.275; AC50 (human AR [5]): > 99.9 µM
9 | C[C@H]1CCCC(=O)CCC/C=C/c2cc(O)cc(O)c2C(=O)O1 [Zearalenone] | 0 | 0.2969 | Constant | Weak | Weak | – | 1 | – | – | 41.4682 | – | 1 | 0 | 0 | 9.73 | 7.46 | – | – | – | – | max_med (maximum median response) (human AR [2]; [10]): 103.904; win_model (winning curve-fit model) (human AR [2]; spid AR_antagonist, sheet antagonist_fits, Constant = no concentration response): Hill; hill_gw (Hill model slope/Hill coefficient) (human AR [2]; [15]): 2.042; hill_tp (Hill model top of curve) (human AR [2]; [15]): 105.112; hill_tp (Hill model top of curve) (AR2 cells (HepG2-AR2) [3]; Hill fit parameter): 49.8014
10 | CC(=O)O[C@]1(C(C)=O)CC[C@H]2[C@@H]3C=C(Cl)C4=CC(=O)[C@@H]5C[C@@H]5[C@]4(C)[C@H]3CC[C@@]21C [Cyproterone acetate] | – | – | – | Moderate | Moderate | – | – | – | – | 16.8337 | 12.2685 | 1 | 1 | 1 | – | – | – | Weak | – | 1 | Agonist reference (AR; Supplementary Table S1): Weak
11 | C[C@]12CCC(=O)C=C1CC[C@@H]1[C@@H]2CC[C@@]2(C)[C@H]1CC[C@]2(C)O [17-Methyltestosterone] | – | – | – | Inactive | – | – | – | – | – | 23.6208 | 30.9505 | – | – | – | – | – | – | Strong | – | 0 | Agonist reference (AR; Supplementary Table S1): Strong; UPitt antagonist [4]: 0; OT 8 hr [6]: 1; OT 16 hr [6]: 1
